Measured values: PubChem BioAssay AID1845210 (Molecular Pharmacology Branch, DTP, NCI, 2023)
“And” between values parts separate entries of the source, which are not always exact repeats. Identical values can stand only once.

Tested on: NCI-H226 complex tumor spheroids, viability
Experiment: Anticancer human tumor NCI-H226 cell line growth inhibition;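 further: spheroids exposed to compound for 7 days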;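 on viability, T/C: 100% = DMSO vehicle control viability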
Conditions: for viability, T/C: stronger effect = lower value; active means viability on the fitted dose curve at most 10% of control; inactive means the rest
In short: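 Complex spheroids of malignant cells with endothelial cells and mesenchymal stem cells; agents alone or combined, from near clinical Cmax (or 10 microM if unknown) down in half-log steps, 0.25% DMSO final.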

[1] = curve of first compound, second compound 30 pM
[2] = curve of first compound, second compound 94.9 pM
[3] = curve of first compound, second compound 0.0003 µM
[4] = curve of first compound, second compound 0.000949 µM
[5] = curve of first compound, second compound 0.003 µM
[6] = second compound 30 pM, first compound 0.0316 µM
[7] = second compound 30 pM, first compound 0.1 µM
[8] = second compound 30 pM, first compound 0.316 µM
[9] = second compound 30 pM, first compound 1 µM
[10] = second compound 30 pM, first compound 3.16 µM
[11] = second compound 30 pM, first compound 10 µM
[12] = second compound 94.9 pM, first compound 0.0316 µM
[13] = second compound 94.9 pM, first compound 0.1 µM
[14] = second compound 94.9 pM, first compound 0.316 µM
[15] = second compound 94.9 pM, first compound 1 µM
[16] = second compound 94.9 pM, first compound 3.16 µM
[17] = second compound 94.9 pM, first compound 10 µM
[18] = second compound 0.0003 µM, first compound 0.0316 µM
[19] = second compound 0.0003 µM, first compound 0.1 µM
[20] = second compound 0.0003 µM, first compound 0.316 µM
[21] = second compound 0.0003 µM, first compound 1 µM
[22] = second compound 0.0003 µM, first compound 3.16 µM
[23] = second compound 0.0003 µM, first compound 10 µM
[24] = second compound 0.000949 µM, first compound 0.0316 µM
[25] = second compound 0.000949 µM, first compound 0.1 µM
[26] = second compound 0.000949 µM, first compound 0.316 µM
[27] = second compound 0.000949 µM, first compound 1 µM
[28] = second compound 0.000949 µM, first compound 3.16 µM
[29] = second compound 0.000949 µM, first compound 10 µM
[30] = second compound 0.003 µM, first compound 0.0316 µM
[31] = second compound 0.003 µM, first compound 0.1 µM
[32] = second compound 0.003 µM, first compound 0.316 µM
[33] = second compound 0.003 µM, first compound 1 µM
[34] = second compound 0.003 µM, first compound 3.16 µM
[35] = second compound 0.003 µM, first compound 10 µM

O=C(c1cc(Cc2n[nH]c(=O)c3ccccc23)ccc1F)N1CCN(C(=O)C2CC2)CC1 + COc1cc2c(cc1O)CCNC21CSC2c3c(OC(C)=O)c(C)c4c(c3C(COC1=O)N1C(O)C3Cc5cc(C)c(OC)c(O)c5C(C21)N3C)OCO4
active: viability, T/C (second compound 0.003 µM, first compound 0.0949 µM) 2.43% | viability, T/C (second compound 0.003 µM, first compound 0.3 µM) 16.1% | viability, T/C (second compound 0.003 µM, first compound 0.949 µM) 1.13% | viability, T/C (second compound 0.003 µM, first compound 3 µM) 2.74% | viability, T/C (second compound 0.003 µM, first compound 9.49 µM) 0.95% | viability, T/C (second compound 0.003 µM, first compound 30 µM) 0.69%
inactive: viability, T/C (second compound 30 pM, first compound 0.0949 µM) 94.5% | viability, T/C (second compound 30 pM, first compound 0.3 µM) 109% | viability, T/C (second compound 30 pM, first compound 0.949 µM) 109% | viability, T/C (second compound 30 pM, first compound 3 µM) 108% | viability, T/C (second compound 30 pM, first compound 9.49 µM) 99.4% | viability, T/C (second compound 30 pM, first compound 30 µM) 82.5% | viability, T/C (second compound 94.9 pM, first compound 0.0949 µM) 109% | viability, T/C (second compound 94.9 pM, first compound 0.3 µM) 95% | viability, T/C (second compound 94.9 pM, first compound 0.949 µM) 105% | viability, T/C (second compound 94.9 pM, first compound 3 µM) 101% | viability, T/C (second compound 94.9 pM, first compound 9.49 µM) 99.4% | viability, T/C (second compound 94.9 pM, first compound 30 µM) 102% | viability, T/C (second compound 0.0003 µM, first compound 0.0949 µM) 115% | viability, T/C (second compound 0.0003 µM, first compound 0.3 µM) 129% | viability, T/C (second compound 0.0003 µM, first compound 0.949 µM) 126% | viability, T/C (second compound 0.0003 µM, first compound 3 µM) 118% | viability, T/C (second compound 0.0003 µM, first compound 9.49 µM) 112% | viability, T/C (second compound 0.0003 µM, first compound 30 µM) 93.2% | viability, T/C (second compound 0.000949 µM, first compound 0.0949 µM) 126% | viability, T/C (second compound 0.000949 µM, first compound 0.3 µM) 112% | viability, T/C (second compound 0.000949 µM, first compound 0.949 µM) 100% | viability, T/C (second compound 0.000949 µM, first compound 3 µM) 103% | viability, T/C (second compound 0.000949 µM, first compound 9.49 µM) 87.4% | viability, T/C (second compound 0.000949 µM, first compound 30 µM) 49.5%
> 30 µM: IC50 [1] | IC50 [2] | IC50 [3] | IC50 [4]
< 0.0949 µM: IC50 [5]

CC(C)n1c(=O)n(C)c2cnc3cc(F)c(-c4ccc(OCCCN5CCCCC5)nc4)cc3c21 + COc1cc2c(cc1O)CCNC21CSC2c3c(OC(C)=O)c(C)c4c(c3C(COC1=O)N1C(O)C3Cc5cc(C)c(OC)c(O)c5C(C21)N3C)OCO4
6.75 µM: IC50 [2]
6.76 µM: IC50 [4]
6.99 µM: IC50 [3]
< 0.0316 µM: IC50 [5]
active: viability, T/C [30] 1.2% | viability, T/C [31] 2.1% | viability, T/C [32] 1.2% | viability, T/C [33] 3.57% | viability, T/C [34] 1.96% | viability, T/C [35] 1%
9.84 µM: IC50 [1]
inactive: viability, T/C [6] 110% | viability, T/C [7] 102% | viability, T/C [8] 121% | viability, T/C [9] 110% | viability, T/C [10] 91% | viability, T/C [11] 49.4% | viability, T/C [12] 108% | viability, T/C [13] 102% | viability, T/C [14] 112% | viability, T/C [15] 103% | viability, T/C [16] 90.4% | viability, T/C [17] 29.2% | viability, T/C [18] 107% | viability, T/C [19] 125% | viability, T/C [20] 122% | viability, T/C [21] 102% | viability, T/C [22] 102% | viability, T/C [23] 27.4% | viability, T/C [24] 98.2% | viability, T/C [25] 103% | viability, T/C [26] 104% | viability, T/C [27] 120% | viability, T/C [28] 97.4% | viability, T/C [29] 25.4%

Cc1cc(C)c(CNC(=O)c2cc(-c3ccc(CN4CCOCC4)cc3)cc3c2cnn3C2CCCC2)c(=O)[nH]1 + COc1cc2c(cc1O)CCNC21CSC2c3c(OC(C)=O)c(C)c4c(c3C(COC1=O)N1C(O)C3Cc5cc(C)c(OC)c(O)c5C(C21)N3C)OCO4
inactive: viability, T/C [6] 87.5% | viability, T/C [7] 106% | viability, T/C [8] 96.8% | viability, T/C [9] 93.8% | viability, T/C [10] 86.7% | viability, T/C [11] 95.8% | viability, T/C [12] 98.3% | viability, T/C [13] 100% | viability, T/C [14] 101% | viability, T/C [15] 96.6% | viability, T/C [16] 83.1% | viability, T/C [17] 91.8% | viability, T/C [18] 105% | viability, T/C [19] 115% | viability, T/C [20] 109% | viability, T/C [21] 110% | viability, T/C [22] 110% | viability, T/C [23] 93.3% | viability, T/C [24] 108% | viability, T/C [25] 104% | viability, T/C [26] 113% | viability, T/C [27] 103% | viability, T/C [28] 92.3% | viability, T/C [29] 97.8%
active: viability, T/C [30] 3.24% | viability, T/C [31] 1.05% | viability, T/C [32] 2.46% | viability, T/C [33] 0.49% | viability, T/C [34] 0.37% | viability, T/C [35] 0.44%
> 10 µM: IC50 [1] | IC50 [2] | IC50 [3] | IC50 [4]
< 0.0316 µM: IC50 [5]

COc1cc(C)[nH]c(=O)c1CN1CCc2c(Cl)cc(C(OC)C3COC3)c(Cl)c2C1=O (configuration not stated)
> 10 µM: IC50 (curve of compound)
inactive: viability, T/C (compound 0.0316 µM) 90.2% and 107% and 114% | viability, T/C (compound 0.1 µM) 113% and 115% and 102% | viability, T/C (compound 0.316 µM) 109% and 125% and 108% | viability, T/C (compound 1 µM) 110% and 115% and 102% | viability, T/C (compound 3.16 µM) 114% and 134% and 116% | viability, T/C (compound 10 µM) 116% and 120% and 108%
